Assay results published in ChEMBL document CHEMBL3232946, “Development of 3,5-dinitrobenzoate-based 5-lipoxygenase inhibitors” (Bioorg Med Chem, 2014).

Legend:
[1] = biological target: T1, Polyunsaturated fatty acid 5-lipoxygenase (Homo sapiens, UniProt P09917); test: Inhibition of human 5-LOX using arachidonic acid as substrate preincubated for 10 mins followed by substrate addition by H2DCFDA staining-based fluorometric analysis
T1 sequence (P09917 whole entry): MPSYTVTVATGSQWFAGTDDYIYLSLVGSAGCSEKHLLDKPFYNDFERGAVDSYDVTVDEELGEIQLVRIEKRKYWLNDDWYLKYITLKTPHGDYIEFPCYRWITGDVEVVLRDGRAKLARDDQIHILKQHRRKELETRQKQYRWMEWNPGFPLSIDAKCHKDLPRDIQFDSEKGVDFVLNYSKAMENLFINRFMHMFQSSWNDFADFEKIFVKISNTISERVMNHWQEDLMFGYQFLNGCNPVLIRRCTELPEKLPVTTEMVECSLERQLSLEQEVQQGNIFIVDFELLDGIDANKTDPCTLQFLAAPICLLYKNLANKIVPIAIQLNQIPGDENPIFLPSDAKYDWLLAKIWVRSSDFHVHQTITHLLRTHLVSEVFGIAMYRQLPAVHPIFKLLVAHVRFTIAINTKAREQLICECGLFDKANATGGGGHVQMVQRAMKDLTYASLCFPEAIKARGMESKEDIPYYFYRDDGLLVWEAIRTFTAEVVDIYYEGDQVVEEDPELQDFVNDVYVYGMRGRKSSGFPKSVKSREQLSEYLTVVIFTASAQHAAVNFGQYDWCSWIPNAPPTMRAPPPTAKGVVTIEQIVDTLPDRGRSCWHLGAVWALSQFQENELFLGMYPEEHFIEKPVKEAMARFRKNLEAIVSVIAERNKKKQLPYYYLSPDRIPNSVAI

[2] = biological target: T1, Polyunsaturated fatty acid 5-lipoxygenase; test: Inhibition of 5-LOX in human whole blood assessed as inhibition of A23187-induced LTB4 production preincubated for 15 mins followed by A23187 induction measured after 30 mins by ELISA

Row | IC50 [1] [nM] | IC50 [2] [µM] | SMILES
1 | > 50000 | > 50 | O=C(O)c1cccc(C(=O)Oc2cccc3ccccc23)c1
2 | 30 | > 50 | O=C(Nc1cccc(-c2ccccc2)c1)c1cc([N+](=O)[O-])cc([N+](=O)[O-])c1
3 | 7400 | 6.5 | CCCc1cccc(OC(=O)c2cc([N+](=O)[O-])cc([N+](=O)[O-])c2)c1
4 | 1100 | > 50 | COc1ccc(NC(=O)c2cc([N+](=O)[O-])cc([N+](=O)[O-])c2)cc1OC
5 | 1000 |  | O=C(Oc1cccc2ccccc12)c1cc([N+](=O)[O-])cc([N+](=O)[O-])c1
6 | 6 | 0.5 | Cc1cccc(OC(=O)c2cc([N+](=O)[O-])cc([N+](=O)[O-])c2)c1
7 | 4 | > 50 | O=C(Nc1cccc2ccccc12)c1cc([N+](=O)[O-])cc([N+](=O)[O-])c1
8 | 8700 | 38 | O=C(Oc1cccc(-c2ccccc2)c1)c1cc([N+](=O)[O-])cc([N+](=O)[O-])c1
9 | 34 | 2.7 | COc1ccc(NC(=O)c2cc([N+](=O)[O-])cc([N+](=O)[O-])c2)cc1
10 | 33 | > 50 | O=C(Nc1cccc(Cl)c1)c1cc([N+](=O)[O-])cc([N+](=O)[O-])c1
11 | > 50000 | > 50 | O=C(O)c1cccc(C(=O)Nc2cccc3ccccc23)c1
12 | > 50000 | > 50 | O=C(O)c1cccc(C(=O)Nc2ccccc2)c1
13 | 1600 | 15.8 | O=C(Oc1ccccc1)c1cc([N+](=O)[O-])cc([N+](=O)[O-])c1
14 | 10 | > 50 | Cc1cccc(NC(=O)c2cc([N+](=O)[O-])cc([N+](=O)[O-])c2)c1
15 | 83600 | 14.4 | O=C(NCc1cccc(Br)c1)c1cc([N+](=O)[O-])cc([N+](=O)[O-])c1
16 | > 50000 | > 50 | O=C(Oc1cccc(Cl)c1Cl)c1cc([N+](=O)[O-])cc([N+](=O)[O-])c1
17 | > 50000 | > 50 | O=C(Nc1cccc(Br)c1)c1cc([N+](=O)[O-])cc([N+](=O)[O-])c1
18 | 7100 | 24.6 | O=C(Oc1cccc2ccccc12)c1cccc([N+](=O)[O-])c1
19 | > 50000 | > 50 | O=C(Oc1ccc(-c2ccccc2)cc1)c1cc([N+](=O)[O-])cc([N+](=O)[O-])c1
20 | > 50000 | > 50 | O=C(O)c1cccc(C(=O)OCc2ccccc2)c1

Row | SMILES | IC50 [1] [nM] | IC50 [2] [µM]
21 | O=C(Nc1ccccc1)c1cc([N+](=O)[O-])cc([N+](=O)[O-])c1 | 1800 | 15.2
